Where two headings read alike, the source gives them in different places. Numbered stars: 1 amine (or outer) side, 2 acyl side, 3 side chain; on linkers, the order of the positions; unused ones are H or OH. Bridge positions count the residues as written; N and C are the ends. Square brackets hold non-standard residues; d marks the D form. Peptide text beside a SMILES is read from it. N(2-Aminoethyl)Gly = O=C(CN(CCN[*:3])[*:1])[*:2]; CO = O=C([*:1])[*:2]; Nlys = NCCCCNCC(=O)O
Legend:
[1] = target: T1, α1β1-collagen IV (Homo sapiens, UniProt P05556+P56199); assay: Adhesion of α1-K562 overexpressor cells to immobilized collagen IV; format: cell-based; details: α1-K562 overexpressed cells; 30 min at 37 °C; read-out: IC50 α1β1-collagen IV
T1 construct: expressed in transfected cells; host or cells: K562 transfected with α1 integrin (gift of Dr. M. Hemler)
T1 sequence (P56199 29-1179): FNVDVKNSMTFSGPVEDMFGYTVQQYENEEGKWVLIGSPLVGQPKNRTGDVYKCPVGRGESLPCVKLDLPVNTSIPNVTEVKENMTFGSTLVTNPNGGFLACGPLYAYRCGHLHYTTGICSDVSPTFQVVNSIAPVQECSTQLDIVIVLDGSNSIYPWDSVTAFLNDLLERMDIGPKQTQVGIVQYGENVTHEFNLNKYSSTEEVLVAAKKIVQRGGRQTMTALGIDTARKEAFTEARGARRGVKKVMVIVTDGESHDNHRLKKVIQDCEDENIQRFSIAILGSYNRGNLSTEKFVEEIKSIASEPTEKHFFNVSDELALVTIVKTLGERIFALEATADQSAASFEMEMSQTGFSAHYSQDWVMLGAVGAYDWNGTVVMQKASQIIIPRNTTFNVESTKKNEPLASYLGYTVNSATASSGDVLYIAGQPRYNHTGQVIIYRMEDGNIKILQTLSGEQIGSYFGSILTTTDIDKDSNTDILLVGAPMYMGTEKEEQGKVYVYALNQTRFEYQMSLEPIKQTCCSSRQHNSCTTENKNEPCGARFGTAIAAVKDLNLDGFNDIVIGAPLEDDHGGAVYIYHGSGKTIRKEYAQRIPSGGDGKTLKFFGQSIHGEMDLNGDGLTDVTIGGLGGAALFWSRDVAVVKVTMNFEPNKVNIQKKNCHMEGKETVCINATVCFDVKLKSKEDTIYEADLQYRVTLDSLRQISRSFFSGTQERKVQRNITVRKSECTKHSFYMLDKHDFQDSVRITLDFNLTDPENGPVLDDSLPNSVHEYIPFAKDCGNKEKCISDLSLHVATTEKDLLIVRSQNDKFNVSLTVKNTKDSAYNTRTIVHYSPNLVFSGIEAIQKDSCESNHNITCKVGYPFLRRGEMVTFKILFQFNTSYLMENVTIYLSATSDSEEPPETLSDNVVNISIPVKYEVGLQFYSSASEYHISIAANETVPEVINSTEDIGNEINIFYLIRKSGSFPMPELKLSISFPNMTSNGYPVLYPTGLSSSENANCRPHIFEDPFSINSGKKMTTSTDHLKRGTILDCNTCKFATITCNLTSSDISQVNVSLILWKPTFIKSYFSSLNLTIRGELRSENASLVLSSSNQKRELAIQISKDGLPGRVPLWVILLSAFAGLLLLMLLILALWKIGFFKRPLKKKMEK
T1 sequence (P05556 21-798): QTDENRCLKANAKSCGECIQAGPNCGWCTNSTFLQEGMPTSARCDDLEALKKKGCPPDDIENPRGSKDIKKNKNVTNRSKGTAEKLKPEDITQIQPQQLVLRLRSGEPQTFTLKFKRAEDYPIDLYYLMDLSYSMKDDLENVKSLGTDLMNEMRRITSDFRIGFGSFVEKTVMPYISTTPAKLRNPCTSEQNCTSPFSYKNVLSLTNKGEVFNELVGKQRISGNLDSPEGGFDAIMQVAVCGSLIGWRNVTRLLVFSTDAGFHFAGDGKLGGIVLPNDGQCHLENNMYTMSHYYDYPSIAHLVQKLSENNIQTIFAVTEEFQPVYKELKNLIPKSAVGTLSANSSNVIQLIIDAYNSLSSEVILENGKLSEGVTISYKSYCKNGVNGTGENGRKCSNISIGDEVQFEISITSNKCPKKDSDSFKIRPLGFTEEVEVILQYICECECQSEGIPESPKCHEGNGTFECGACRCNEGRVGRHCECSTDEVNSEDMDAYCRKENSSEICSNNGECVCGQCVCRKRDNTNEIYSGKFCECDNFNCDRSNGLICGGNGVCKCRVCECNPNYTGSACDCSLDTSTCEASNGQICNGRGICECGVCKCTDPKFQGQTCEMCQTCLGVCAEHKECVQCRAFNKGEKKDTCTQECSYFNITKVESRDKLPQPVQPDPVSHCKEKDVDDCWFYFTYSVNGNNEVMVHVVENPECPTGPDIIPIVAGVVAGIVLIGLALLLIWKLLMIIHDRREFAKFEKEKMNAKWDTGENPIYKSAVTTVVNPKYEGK
Experimental: (§1) Cell adhesion assay was carried out as previously described[47] with minor modifications. The day before the experiment, each well was coated with VCAM-1 (3 mg/mL) immobilized on the 96-well plate in PBS by overnight incubation at 4 °C. Thereafter, nonspecific binding was blocked by incubating the wells with 1% (w/v) bovine serum albumin (BSA) in Hank’s Balanced Salt Solution (HBSS) containing 5 mM MgCl2 at room temperature for 1 h before use. The cells were labeled by incubation with 12.5 μM 5-chloromethylfluorescein diacetate (CMFDA) in HBSS without 1% BSA at 37 °C for 30 min. The labeled cells were then centrifuged at 1000 rpm and washed twice with HBSS containing 1% BSA to remove excess CMFDA. Labeled cells (about 1 × 10^5 cells/well) were plated on each well in the presence or absence of visabrons and incubated at 37 °C for 60 min. Unbound cells were removed by washing the wells three times with 1% (w/v) BSA in HBSS, and bound cells were lysed by the addition of 0.5% Triton X-100 (diluted in DDW). The fluorescence in each well was quantified with a SPECTRAFluor Plus plate reader (Tecan), at λex = 485 nm and λem = 530 nm. To determine the number of adhered cells from the fluorescence values, a standard curve was generated by serial dilution of known numbers of CMFDA-labeled cells. […]
(§2) Table S6. TMLD- linear peptides inhibition of adhesion of integrin expressing cells to the respective immobilized ligands a a The cells were incubated for 30 min at 37 °C with the cells (1 x 105) in the 96 -well plate, previously covered with extracellular matrix ligand, in 100 µL of HBSS containing calcium and magnesium. After being washed with the same buffer, the adhered cells were lysed by Triton X-100, and the plate was read using Tecan spectrofluorimeter. The inhibitory dose 50% (IC 50) values represent ing mean ± standard deviatio ns (n=6) were calculated from dose response curves. bJurkat cells,VCAM -1; c α9-SW480 overexpressing cells, VCAM-1; d α1-K562 overexpressing cells, collagen IV ;e α2-K562 overexpressing cells, collagen I; f K562 wild type

[2] = target: T2, α2β1-collagen I (Homo sapiens, UniProt P05556+P17301); assay: Adhesion of α2-K562 overexpressor cells to immobilized collagen I; format: cell-based; details: α2-K562 overexpressed cells; 30 min at 37 °C; read-out: IC50 α2β1-collagen I
T2 construct: expressed in transfected cells; host or cells: K562 transfected with α2 integrin (gift of Dr. M. Hemler)
Experimental: as §1, §2

[3] = target: T3, α5β1-fibronectin (Homo sapiens, UniProt P05556+P08648); assay: Adhesion of wild-type K562 cells to immobilized fibronectin; format: cell-based; details: wild-type K562 (α5β1); 30 min at 37 °C; read-out: IC50 α5β1-fibronectin
T3 construct: host or cells: K562 wild type
T3 sequence (P08648 42-894 limits assumed): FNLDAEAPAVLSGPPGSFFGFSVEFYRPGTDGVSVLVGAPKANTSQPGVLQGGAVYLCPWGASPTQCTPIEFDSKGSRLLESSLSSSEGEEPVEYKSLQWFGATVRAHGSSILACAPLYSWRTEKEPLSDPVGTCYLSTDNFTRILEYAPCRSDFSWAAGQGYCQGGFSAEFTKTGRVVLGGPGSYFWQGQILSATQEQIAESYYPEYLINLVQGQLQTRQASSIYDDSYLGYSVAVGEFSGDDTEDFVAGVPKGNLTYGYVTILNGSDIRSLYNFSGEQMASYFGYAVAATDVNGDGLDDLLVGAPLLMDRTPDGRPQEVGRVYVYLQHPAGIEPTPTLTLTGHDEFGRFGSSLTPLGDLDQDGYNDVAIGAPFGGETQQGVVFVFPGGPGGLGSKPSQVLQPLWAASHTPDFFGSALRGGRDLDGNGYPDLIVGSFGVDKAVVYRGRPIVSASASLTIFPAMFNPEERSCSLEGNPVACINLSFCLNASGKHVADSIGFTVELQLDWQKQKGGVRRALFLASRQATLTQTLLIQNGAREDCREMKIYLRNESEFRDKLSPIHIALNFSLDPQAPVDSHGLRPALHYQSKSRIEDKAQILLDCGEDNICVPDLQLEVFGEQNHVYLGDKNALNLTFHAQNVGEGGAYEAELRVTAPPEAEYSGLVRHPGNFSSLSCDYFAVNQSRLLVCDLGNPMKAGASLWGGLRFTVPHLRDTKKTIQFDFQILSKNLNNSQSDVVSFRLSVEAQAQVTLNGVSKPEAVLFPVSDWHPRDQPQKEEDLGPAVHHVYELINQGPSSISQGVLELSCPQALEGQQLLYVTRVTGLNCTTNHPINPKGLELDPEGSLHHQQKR
T3 sequence (P08648 895-1049 limits assumed): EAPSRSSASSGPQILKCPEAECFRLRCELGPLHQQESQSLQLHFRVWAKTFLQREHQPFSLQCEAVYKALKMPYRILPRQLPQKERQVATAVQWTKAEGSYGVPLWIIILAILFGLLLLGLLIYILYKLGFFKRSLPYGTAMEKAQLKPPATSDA
T3 sequence (P05556 21-798): as the sequence (P05556 21-798) above
Experimental: as §1, §2

[4] = target: α9β1-VCAM-1 Fc chimera (Homo sapiens, UniProt P05556+Q13797); assay: ELISA binding assay, α9β1 to VCAM-1 Fc chimera
α9β1-VCAM-1 Fc chimera, sequence (Q13797 30-1035, change not shown): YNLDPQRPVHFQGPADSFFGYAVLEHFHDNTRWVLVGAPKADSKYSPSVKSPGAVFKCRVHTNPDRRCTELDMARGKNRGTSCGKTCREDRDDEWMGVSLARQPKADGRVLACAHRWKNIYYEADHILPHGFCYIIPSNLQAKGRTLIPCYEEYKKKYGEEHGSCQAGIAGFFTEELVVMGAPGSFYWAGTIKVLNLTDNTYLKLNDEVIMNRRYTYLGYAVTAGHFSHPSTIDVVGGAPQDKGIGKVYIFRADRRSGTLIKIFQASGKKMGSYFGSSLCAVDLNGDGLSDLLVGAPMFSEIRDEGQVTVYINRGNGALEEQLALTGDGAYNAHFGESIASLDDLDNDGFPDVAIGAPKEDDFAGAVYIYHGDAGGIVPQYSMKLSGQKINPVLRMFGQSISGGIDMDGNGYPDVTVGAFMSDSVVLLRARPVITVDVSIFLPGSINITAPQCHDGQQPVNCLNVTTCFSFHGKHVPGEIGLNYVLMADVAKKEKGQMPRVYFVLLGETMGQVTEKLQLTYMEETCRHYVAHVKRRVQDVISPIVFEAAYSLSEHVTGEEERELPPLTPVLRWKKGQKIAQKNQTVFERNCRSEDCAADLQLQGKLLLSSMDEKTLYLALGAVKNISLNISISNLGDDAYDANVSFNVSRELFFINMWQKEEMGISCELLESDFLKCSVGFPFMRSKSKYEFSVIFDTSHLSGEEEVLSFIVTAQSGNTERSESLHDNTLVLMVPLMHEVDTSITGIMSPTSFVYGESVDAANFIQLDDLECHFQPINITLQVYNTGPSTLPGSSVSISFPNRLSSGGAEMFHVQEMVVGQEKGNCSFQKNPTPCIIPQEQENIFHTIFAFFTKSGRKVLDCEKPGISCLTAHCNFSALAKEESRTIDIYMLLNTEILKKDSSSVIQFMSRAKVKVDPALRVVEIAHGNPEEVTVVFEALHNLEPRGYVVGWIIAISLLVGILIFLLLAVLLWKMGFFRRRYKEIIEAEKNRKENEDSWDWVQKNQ
α9β1-VCAM-1 Fc chimera, sequence (P05556 21-798, change not shown): as the sequence (P05556 21-798) above

[5] = target: T4, α4β1 (Jurkat lymphocytes-VCAM-1) (Homo sapiens, UniProt P05556+P13612); assay: Adhesion of Jurkat lymphocytes to immobilized VCAM-1; format: cell-based
T4 construct: host or cells: Jurkat (untreated or TNFα-treated)
Experimental: as §1, §2

[6] = target: T5, α4β1-VCAM-1 Fc chimera (Homo sapiens, UniProt P05556+P13612); assay: ELISA solid-phase ligand-receptor binding, integrin α4β1 to VCAM-1 Fc chimera
T5 construct: purchased R&D Systems Co (Minneapolis, MN)
Experimental: (§3) Recombinant human VCAM-1 and MadCAM-1 (3 mg/mL in phosphate-buffered saline containing divalent cations), were immobilized on the wells of a 96-well ELISA plate (Dynatech Immulon) by overnight incubation at 4 °C. After washing with HBSST (Hanks’ Balanced Salt solution containing calcium and magnesium and 0.05% Tween-20) the plates were blocked with 5% BSA in HBSST by incubation at 37 °C for 1 h. The plates were washed with HBSST, and recombinant human integrin α4β1 or α4β7 (3 mg/mL) was added in the presence or absence of competitor cyclic peptides, disintegrins, or monoclonal anti-integrin antibodies dissolved in HBSS containing 1% BSA. The plates were thereafter incubated at 30 °C for 3 h, as time-binding had reached a plateau, and then washed 3 times with HBSST. Bound integrins were quantitated using primary anti-integrin polyclonal and monoclonal antibodies at a concentration of 0.5 mg/mL in HBSST containing 1% BSA, and incubated at 37 °C for 1 h. The plates were washed 3 times with HBSST and secondary antibodies- alkaline phosphatase (AP) conjugated (Sigma Co.) were added at dilution 1:1000 and incubated at 37 °C for 1 h. Thereafter, the plates were washed 3 times with HBSST and twice with HBSS and the alkaline phosphatase substrate 4-nitrophenyl phosphate was added to the wells for 30 min. The plates were read using Tecan Spectrophotometer at 405 nm. The level of nonspecific binding was measured in each experiment by determining the level of binding to wells coated with BSA alone.

[7] = target: T6, α4β7-MAdCAM-1 Fc chimera (Homo sapiens, UniProt P13612+P26010); assay: ELISA solid-phase ligand-receptor binding, integrin α4β7 to MAdCAM-1 Fc chimera
T6 construct: purchased R&D Systems Co (Minneapolis, MN)
Experimental: as §3

[8] = Jurkat treated with TNF-α (10 ng/mL) for 24 h, read-out: IC50 Jurkat lymphocytes-VACAM-1 TNFα
[9] = untreated Jurkat lymphocytes (α4β1), read-out: IC50 Jurkat lymphocytes-VACAM-1 control

Compound	IC50 [1] [µM]	IC50 [2] [µM]	IC50 [3] [µM]	IC50 [4] [µM]	IC50 [5, 8] [µM]	IC50 [5, 9] [µM]	IC50 [6] [µM]	IC50 [7] [µM]	IC50 ([4]; ELISA binding assay per footnote b, α9-B1LBC3 overexpressed cells named in footnote a, read-out: IC50 α9β1-VCAM-1 Fc chimera) [µM]	IC50 ([6]; ELISA binding assay, recombinant human VCAM-1 chimera, read-out: IC50 α4β1-VCAM-1 Fc chimera) [µM]	IC50 ([7]; ELISA binding assay, recombinant human MAdCAM-1 chimera, read-out: IC50 α4β7-MAdCAM-1 Fc chimera) [µM]
CSCC[C@@H]1NC(=O)[C@H]([C@@H](C)O)NC(=O)CN(C(=O)[C@@H](N)CCCCN)CCNC(=O)NCCN(CC(=O)N[C@@H](CC(C)C)C(N)=O)C(=O)[C@H](CC(=O)O)NC(=O)[C@H](CC(C)C)NC1=O [visabron c (2–2)] (H-K[N(2-Aminoethyl)Gly]TMLD[N(2-Aminoethyl)Gly]L-NH2; linker 2-7 via CO)	> 10000	> 10000	> 10000	3.6	0.5	7	2.3	> 500			
CSCC[C@@H]1NC(=O)[C@H]([C@@H](C)O)NC(=O)CN(C(=O)[C@@H](N)CCCCN)CCCCNC(=O)NCCCCN(CC(=O)N[C@@H](CC(C)C)C(N)=O)C(=O)[C@H](CC(=O)O)NC(=O)[C@H](CC(C)C)NC1=O [visabron c (4–4)] (H-K[Nlys]TMLD[Nlys]L-NH2; linker 2-7 via CO)	> 10000	> 10000	> 10000	0.4	0.4	5	0.4	> 500			
natalizumab: clinical-grade monoclonal antibody anti-α4β1 produced by Biogen Co. [reference compound]	> 10000	> 10000	> 10000		0.002	0.005			0.015	0.01	0.015

From PMC8717366, “Synthesis and Pharmacological Characterization of Visabron, a Backbone Cyclic Peptide Dual Antagonist of α4β1 (VLA-4)/α9β1 Integrin for Therapy of Multiple Sclerosis” (JACS Au, 2021)
